Test results reported in publication PMC12142043, “Cell-based high-content approach for SARS-CoV-2 neutralization identifies unique monoclonal antibodies and PI3K pathway inhibitors” (Frontiers in Cell and Developmental Biology, 2025).

Test system: SARS-CoV-2 (USA-WA1/2020) in Calu-3 cells
Type: cell-based
Details: Calu-3, 48 h; for dsRNA signal, AU High: high dose (10 µM); for dsRNA signal, AU Low: low dose (100 nM)

Compound	dsRNA signal, AU High [AU]	dsRNA signal, AU Low [AU]
O=C(Nc1cccc(Nc2nccc(Nc3cccc(C(F)(F)F)c3)n2)c1)C1CC1 [Aurora Kinase Inhibitor III]	2378.0	11511.4
CNC(=O)c1ccccc1Sc1ccc2c(/C=C/c3ccccn3)n[nH]c2c1 [Axitinib (AG 013736)]	42600.6	65444.2
CCN1CCN(c2ccc(Nc3cc(N(C)C(=O)Nc4c(Cl)c(OC)cc(OC)c4Cl)ncn3)cc2)CC1 [BGJ398]	24356.1	22673.4
CC[C@@H]1C(=O)N(C)c2cnc(Nc3ccc(C(=O)NC4CCN(C)CC4)cc3OC)nc2N1C1CCCC1 [BI 2536]	34739.4	58236.8
Cc1ccc(-n2nc(C(C)(C)C)cc2NC(=O)Nc2ccc(OCCN3CCOCC3)c3ccccc23)cc1 [BIRB 796 (Doramapimod)]	8315.3	13140.6
CN(C)Cc1cccc(N/C(=C2\C(=O)Nc3cc(C(N)=O)ccc32)c2ccccc2)c1 [BIX 02188]	40230.6	23376.7
NC(=O)c1ccc2nc(-c3ccc(Oc4ccc(Cl)cc4)cc3)[nH]c2c1 [BML-277]	33021.5	13488.9
Cc1ccc2nc(NCCN)c3ncc(C)n3c2c1.Cl [BMS345541 hydrochloride]	0.0	5872.9
CCCNC(=O)c1cn2ncnc(Nc3cc(C(=O)NC4CC4)ccc3C)c2c1C.Cl [BMS-582949 hydrochloride]	7441.1	64364.9
CCOc1ccn(-c2ccc(F)cc2)c(=O)c1C(=O)Nc1ccc(Oc2ccnc(N)c2Cl)c(F)c1 [BMS-777607]	39539.6	18689.6
CCn1c(C(=O)N(C2CC2)C2CC2)cc2c3c(ncn3C)c(Nc3cc(C)n(C)n3)nc21 [BMS-911543]	18362.9	16684.7
C=CC(=O)Nc1cc(-n2c(=O)ccc3cnc4ccc(-c5ccc(NS(C)(=O)=O)cc5)cc4c32)ccc1C [BMX-IN-1]	37737.5	26747.2
Cc1ccc(NC(=O)c2ccc(CN3CC[C@H](N(C)C)C3)c(C(F)(F)F)c2)cc1Nc1nccc(-c2cncnc2)n1 [Bafetinib (INNO-406)]	1113.6	32473.2
CCN(CCO)CCCOc1ccc2c(Nc3cc(CC(=O)Nc4cccc(F)c4)[nH]n3)ncnc2c1 [Barasertib (AZD1152-HQPA)]	48647.4	41038.0
CCS(=O)(=O)N1CC(CC#N)(n2cc(-c3ncnc4[nH]ccc34)cn2)C1 [Baricitinib (LY3009104, INCB028050)]	27614.1	24279.2
CCS(=O)(=O)N1CC(CC#N)(n2cc(-c3ncnc4[nH]ccc34)cn2)C1 [Baricitinib phosphate]	2518.9	32442.1
CC(C)(C)c1ccc(S(=O)(=O)/C=C/C#N)cc1 [Bay 11-7085]	63723.6	21705.2
O=C(O)CCC(=O)Nc1ccc(Br)cn1 [Bikinin]	39833.6	44813.6
COc1ccc(-c2coc3cc(O)cc(O)c3c2=O)cc1 [Biochanin A]	14982.3	21751.5
COc1cc(Nc2c(C#N)cnc3cc(OCCCN4CCN(C)CC4)c(OC)cc23)c(Cl)cc1Cl [Bosutinib (SKI-606)]	38090.7	42027.4
CCOc1ccc(Nc2ccc(/C(=C3C=C/C(=[N+](/CC)Cc4cccc(S(=O)(=O)[O-])c4)C=C/3C)c3ccc(N(CC)Cc4cccc(S(=O)(=O)O)c4)cc3C)cc2)cc1 [Brilliant Blue G]	11949.6	31753.4
Cc1cc2c(F)c(Oc3ncnn4cc(OC[C@@H](C)O)c(C)c34)ccc2[nH]1 [Brivanib (BMS-540215)]	51042.4	684.7
O=C(/C=C/c1ccc(O)c(O)c1)c1ccc(O)cc1O [Butein]	38311.3	14009.4
CCN1C(=O)CNc2ncc(-c3ccc(-c4nc[nH]n4)nc3C)nc21 [CC-115]	5666.1	44138.8
CO[C@H]1CC[C@H](N2C(=O)CNc3ncc(-c4ccc(C(C)(C)O)nc4)nc32)CC1 [CC-223]	6587.4	41988.9
NC1(Cc2ccc(Cl)cc2)CCN(c2ncnc3[nH]ccc23)CC1 [CCT128930]	1507.6	9152.4
Cc1cc(CN2CCN(c3c(Br)cnc4nc(-c5ccc(N6CCN(C)CC6)cc5)[nH]c34)CC2)no1 [CCT137690]	0.0	46657.6

Compound	dsRNA signal, AU High [AU]	dsRNA signal, AU Low [AU]
CN1CCN(c2cccc(Nc3nc4c(-c5ccc(S(C)(=O)=O)cc5)cccn4n3)c2)CC1 [CEP-33779]	12244.2	3458.4
Cc1c(NC(=O)c2ccc(C(C)(C)C)cc2)cccc1-c1cn(C)c(=O)c(Nc2ccc(C(=O)N3CCOCC3)cc2)n1 [CGI-1746]	34116.6	18368.1
Nc1ncnc2n[nH]c(Nc3ccc(F)cc3)c12 [CGP 57380]	1947.6	33084.2
O=c1[nH]c2ccc(Cl)cc2c(N[C@@H]2CN3CCC2CC3)c1-c1nc2ccccc2[nH]1 [CHIR-124]	9794.1	2244.6
Cc1cnc(-c2cnc(NCCNc3ccc(C#N)cn3)nc2-c2ccc(Cl)cc2Cl)[nH]1 [CHIR-99021 (CT99021)]	62333.9	10204.7
O=C1NCCCc2c1oc1ccc(O)cc21 [CID 755673]	9033.3	7582.1
O=C(Nc1ccc(CN2CCOCC2)cc1)c1ccc(-c2cccc(Cl)c2)o1 [CID 2011756]	3490.5	12424.4
C=CC(=O)Nc1cccc(Nc2nc(Nc3ccc(N4CCN(C(C)=O)CC4)cc3OC)ncc2C(F)(F)F)c1 [CO-1686 (AVL-301)]	16434.5	26200.1
Cn1cc(C2=C(c3cccc(N)c3)C(=O)NC2=O)c2ccccc21 [CP21R7]	5189.9	2975.5
COc1cc2ncnc(-n3nc(-c4ccccn4)nc3N)c2cc1OC [CP-466722]	23326.1	24439.1
COCCOc1ccc2c(c1)ncn2-c1ccc2cccc(N3CCC(N)CC3)c2n1 [CP-673451]	14720.6	4566.7
COCC(=O)NC/C=C/c1ccc2ncnc(Nc3ccc(Oc4ccc(C)nc4)c(C)c3)c2c1 [CP-724714]	1118.3	29983.8
O=C(O)CCCCC(CCSCc1ccccc1)SCc1ccccc1 (stereo not drawn) [CPI-613]	36.8	25399.4
CC[C@@H](N)CNc1ccnc(-c2cc(-c3cnn(C)c3)ccc2O)n1.Cl.Cl [CRT 0066101]	0.0	45629.7
O=C(O)c1ccc2c(c1)nc(Nc1cccc(Cl)c1)c1ccncc12 [CX-4945 (Silmitasertib)]	35326.5	21811.4
CN1CCCN(C(=O)c2cccc(-c3ccc(/C=C4/C(=O)Nc5ccc(Cl)cc54)o3)c2)CC1 [CX-6258]	0.0	9957.5
COc1cc2nccc(Oc3ccc(NC(=O)C4(C(=O)Nc5ccc(F)cc5)CC4)cc3)c2cc1OC [Cabozantinib (XL184, BMS-907351)]	13075.8	39205.8
COc1cc2nccc(Oc3ccc(NC(=O)C4(C(=O)Nc5ccc(F)cc5)CC4)cc3)c2cc1OC.O=C(O)C[C@H](O)C(=O)O [Cabozantinib malate (XL184)]	148.7	24276.1
COc1cc2c(Oc3ccc4[nH]c(C)cc4c3F)ncnc2cc1OCCCN1CCCC1 [Cediranib (AZD217)]	1359.3	15765.2
CCS(=O)(=O)N1CCN(c2ccc(Nc3ncc(C(N)=O)c(NC4CC4)n3)cc2)CC1 [Cerdulatinib (PRT062070)]	60131.0	21245.1
COc1ccc2c(c[n+](C)c3c4cc5c(cc4ccc23)OCO5)c1OC [Chelerythrine Chloride]	10306.1	22120.5
CCN(CC)CCCC(C)Nc1ccnc2cc(Cl)ccc12 (stereo not drawn) [Chloroquine diphosphate]	4180.7	1072.6
O=C(c1ccc(F)c(F)c1Nc1ccc(I)cc1F)N1CC(O)([C@@H]2CCCCN2)C1 [Cobimetinib]	1412.8	21814.8
O=C(O)c1cc(=O)c2c(OCC(O)COc3cccc4oc(C(=O)O)cc(=O)c34)cccc2o1 [Cromolyn sodium]	64024.7	17957.1
CC(C)(O)/C=C/C(=O)[C@](C)(O)[C@H]1[C@H](O)C[C@@]2(C)[C@@H]3CC=C4[C@@H](C=C(O)C(=O)C4(C)C)[C@]3(C)C(=O)C[C@]12C [Cucurbitacin I]	39627.9	39750.1
C=C1C[C@@]2(O)O[C@@]3(C[C@H]2C(C)C)[C@@H](C)CC[C@@H]13 [Curcumol]	0.0	41441.3
C[C@@H]1C(=O)O[C@H](C)[C@H]1C[C@@H](O)[C@](C)(O)[C@H]1CC[C@@]2(O)C3=CC(=O)[C@@H]4C[C@@H](O)[C@@H](O)C[C@]4(C)[C@H]3CC[C@]12C [Cyasterone]	81.6	11248.2
